Counter-ions that a name gives are not always drawn.
melting point: 53 to 62 °C
SMILES: COCC(=O)C(F)(F)Cc1ccc(OCCN(C)CC(c2ccc(Cl)cc2)c2ccc(Cl)cc2)cc1 (as salt: hydrochloride) [Example 9, 4-[4-[2-[N-[2-Bis-(4-chlorophenyl)ethyl]-N-methylamino]ethoxy]phenyl]-2,2-difluoro-1-methoxy-2-butanone]
